Measured values published in ChEMBL document CHEMBL5046227, “Design, synthesis and bioactivity evaluation of novel evodiamine derivatives with excellent potency against gastric cancer” (Eur J Med Chem, 2022).
The source made the active and inactive calls. No cut-off for these calls is given here.

Legend:
[1] = molecular target: T1, DNA topoisomerase 1 (Homo sapiens) (UniProt P11387); assay: Inhibition of topoisomerase 1 (unknown origin) assessed as relaxation of supercoiled plasmid pBR322 DNA at 100 uM incubated for 15 mins by ethidium bromide staining based agarose gel electrophoresis method
T1 sequence (whole entry): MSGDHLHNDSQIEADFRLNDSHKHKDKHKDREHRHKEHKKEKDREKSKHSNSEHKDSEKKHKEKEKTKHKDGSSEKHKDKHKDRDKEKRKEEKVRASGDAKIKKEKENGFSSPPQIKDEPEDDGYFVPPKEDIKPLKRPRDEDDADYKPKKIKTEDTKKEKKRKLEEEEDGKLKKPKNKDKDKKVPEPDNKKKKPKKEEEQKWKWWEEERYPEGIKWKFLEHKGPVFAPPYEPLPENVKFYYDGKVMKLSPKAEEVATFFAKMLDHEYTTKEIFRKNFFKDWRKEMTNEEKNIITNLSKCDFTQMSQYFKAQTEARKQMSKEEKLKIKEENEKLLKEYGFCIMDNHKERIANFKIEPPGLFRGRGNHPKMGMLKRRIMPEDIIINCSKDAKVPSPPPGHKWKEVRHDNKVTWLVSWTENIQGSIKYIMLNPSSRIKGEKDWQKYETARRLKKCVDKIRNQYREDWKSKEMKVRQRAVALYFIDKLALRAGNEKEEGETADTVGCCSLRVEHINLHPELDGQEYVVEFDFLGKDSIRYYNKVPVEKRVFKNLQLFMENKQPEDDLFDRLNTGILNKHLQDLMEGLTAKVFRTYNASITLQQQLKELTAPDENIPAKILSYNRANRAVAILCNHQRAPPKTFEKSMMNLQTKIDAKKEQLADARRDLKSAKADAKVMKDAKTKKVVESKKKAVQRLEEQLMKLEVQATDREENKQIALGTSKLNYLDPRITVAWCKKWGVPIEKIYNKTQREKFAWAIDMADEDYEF

[2] = molecular target: T1, DNA topoisomerase 1 (Homo sapiens); assay: Inhibition of topoisomerase 1 (unknown origin) assessed as relaxation of supercoiled plasmid pBR322 DNA at 50 uM incubated for 15 mins by ethidium bromide staining based agarose gel electrophoresis method
[3] = molecular target: T1, DNA topoisomerase 1 (Homo sapiens); assay: Inhibition of topoisomerase 1 (unknown origin) assessed as relaxation of supercoiled plasmid pBR322 DNA at 25 uM incubated for 15 mins by ethidium bromide staining based agarose gel electrophoresis method
MGC-803 [4] = assay: Antiproliferative activity against human MGC-803 cells assessed as reduction in cell viability at 18 uM measured after 24 hrs by MTT assay; assay type: functional
MGC-803 [5] = assay: Antiproliferative activity against human MGC-803 cells assessed as reduction in EdU positive cells at 0.03 to 0.3 uM measured after 24 hrs by EdU incorporation assay; assay type: functional, cell-based; details: dose 0.03-0.3 µM
SGC-7901 [6] = assay: Induction of apoptosis in human SGC-7901 cells assessed as viable cells at 0.1 uM after 24 hrs by Annexin V-FITC/PI staining based flow cytometry method (reference value: 99.95%); assay type: functional; details: read-out: Activity
SGC-7901 [7] = assay: Induction of apoptosis in human SGC-7901 cells assessed as early apoptic cells at 0.1 uM after 24 hrs by Annexin V-FITC/PI staining based flow cytometry method (reference value: 0.01%); assay type: functional
SGC-7901 [8] = assay: Induction of apoptosis in human SGC-7901 cells assessed as viable cells at 0.3 uM after 24 hrs by Annexin V-FITC/PI staining based flow cytometry method (reference value: 99.95%); assay type: functional; details: read-out: Activity
MGC-803 [9] = assay: Induction of apoptosis in human MGC-803 cells assessed as viable cells at 0.1 uM after 24 hrs by Annexin V-FITC/PI staining based flow cytometry method (reference value: 99.9%); assay type: functional; details: read-out: Activity
MGC-803 [10] = assay: Induction of apoptosis in human MGC-803 cells assessed as early apoptic cells at 0.1 uM after 24 hrs by Annexin V-FITC/PI staining based flow cytometry method (reference value: 0%); assay type: functional
MGC-803 [11] = assay: Induction of apoptosis in human MGC-803 cells assessed as late apoptic cells at 0.1 uM after 24 hrs by Annexin V-FITC/PI staining based flow cytometry method (reference value: 0.05%); assay type: functional
MGC-803 [12] = assay: Induction of apoptosis in human MGC-803 cells assessed as early apoptic cells at 0.3 uM after 24 hrs by Annexin V-FITC/PI staining based flow cytometry method (reference value: 0%); assay type: functional
MGC-803 [13] = assay: Induction of apoptosis in human MGC-803 cells assessed as late apoptic cells at 0.3 uM after 24 hrs by Annexin V-FITC/PI staining based flow cytometry method (reference value: 0.05%); assay type: functional
MGC-803 [14] = assay: Induction of apoptosis in human MGC-803 cells assessed as late apoptic cells at 0.9 uM after 24 hrs by Annexin V-FITC/PI staining based flow cytometry method (reference value: 0.05%); assay type: functional
MGC-803 [15] = assay: Antimigratory activity against human MGC-803 cells assessed as inhibition on cell migration at 0.1 to 0.9 uM measured after 24 hrs by scratch wound-healing assay; assay type: functional, cell-based; details: dose 0.1-0.9 µM
Lung = assay: Acute toxicity in Kunming mouse assessed as effect on lungs at 1000 mg/kg, ip measured for 14 days by H and E staining based histological analysis; assay type: organism-based; details: in vivo, 336 h, time 14 day
Kidney = assay: Acute toxicity in Kunming mouse assessed as effect on kidney at 1000 mg/kg, ip measured for 14 days by H and E staining based histological analysis; assay type: organism-based; details: in vivo, 336 h, time 14 day
[16] = Toxicity in BALB/c nude mouse xenografted with human MGC-803 cells assessed as change in body weight at 50 mg/kg, ip for 16 days; assay type: organism-based; details: in vivo, 384 h, time 16 day
[17] = Acute toxicity in BALB/c nude mouse xenografted with human MGC-803 cells assessed as effect on WBC level at 50 mg/kg, ip for 16 days (reference value: 78.58 +/- 2.02 x10^9/L); assay type: organism-based; details: in vivo, 384 h, time 16 day
[18] = Acute toxicity in BALB/c nude mouse xenografted with human MGC-803 cells assessed as effect on monocyte level at 50 mg/kg, ip for 16 days (reference value: 1.63 +/- 0.17 x10^9/L); assay type: organism-based; details: in vivo, 384 h, time 16 day
[19] = Acute toxicity in BALB/c nude mouse xenografted with human MGC-803 cells assessed as effect on granulocyte level at 50 mg/kg, ip for 16 days (reference value: 71.30 +/- 1.47 x10^9/L); assay type: organism-based; details: in vivo, 384 h, time 16 day
[20] = Acute toxicity in BALB/c nude mouse xenografted with human MGC-803 cells assessed as effect on RBC level at 50 mg/kg, ip for 16 days (reference value: 12.05 +/- 1 x10^12/L); assay type: organism-based, Erythrocyte; details: in vivo, 384 h, time 16 day
[21] = Acute toxicity in BALB/c nude mouse xenografted with human MGC-803 cells assessed as effect on platelet level at 50 mg/kg, ip for 16 days (reference value: 1512.67 +/- 252.74 x10^9/L); assay type: organism-based; details: in vivo, 384 h, time 16 day
SGC-7901 [22] = assay: Antimigratory activity against human SGC-7901 cells assessed as inhibition on cell migration at 0.1 to 0.9 uM measured after 24 hrs by transwell assay; assay type: functional, cell-based; details: dose 0.1-0.9 µM
MGC-803 [23] = assay: Inhibition of colony formation in human MGC-803 cells at 0.03 to 0.3 uM incubated for 14 days by crystal violet staining based assay; assay type: functional, cell-based; details: dose 0.03-0.3 µM, time 14.0 day

SMILES: Cc1ccc2c(c1)C(=O)N1CCc3c([nH]c4ccc(C)cc34)C1N2c1cccc(F)c1 (stereo not given)
- inhibition [1]: 63.6%
- inhibition [2]: 80.7%
- inhibition [3]: 37.7%
- Activity (MGC-803 [4]): 80%
- Activity (MGC-803 [5]): Dose-Dependent Effect
- viability at 0.1 µM (SGC-7901 [6]): 93.4%
- Activity (SGC-7901 [7]): 2.06%
- viability at 0.3 µM (SGC-7901 [8]): 87.4%
- viability at 0.1 µM (MGC-803 [9]): 65%
- Activity (MGC-803 [10]): 6.79%
- Activity (MGC-803 [11]): 28.21%
- Activity (MGC-803 [12]): 15.3%
- Activity (MGC-803 [13]): 46.8%
- Activity (MGC-803 [14]): 55.99%
- Activity (MGC-803 [15]): Active
- Activity (Lung): Non-Toxic
- Activity (Kidney): Non-Toxic
- Activity [16]: Non-Toxic
- Activity [17]: 80.28 10^9/L
- Activity [18]: 1.625 10^9/L
- Activity [19]: 73.2 10^9/L
- Activity [20]: 10.86 10^12/L
- Activity [21]: 1579 10^9/L
- Activity (SGC-7901 [22]): Active
- Activity (MGC-803 [23]): Active
